The values that follow are results of earlier work, collected in article PMC5306496 (British Journal of Clinical Pharmacology, 2016).

Read-outs that look alike come from different tables or passages of the source.

Assay in series [1]: not given
This is another data set of the same source.

Assay in series [2]: not given
This is another data set of the same source.

For series [3] the following is noted: CVVHDF.
The mark [4] stands for this setting: patients with SAB/RIE and CrCl > 30 ml min^−1, 6 mg kg^−1 once daily.

In the case of daptomycin, the “clearance by CRRT as share of the total drug clearance” value is listed as 40–50%. The PK linearity result (once‐daily doses of 6–12 mg kg^−1) is recorded as “linear PK profile”. The “amount of drug cleared by the kidneys” value (patients with normal renal function) is given as 34–54%. Further, the “C min that may be associated with elevated creatine phosphokinase (CPK)” value in series [1] (additional safety threshold) is greater than 24.3 µg/mL. Moreover, the “safety threshold C max” value in series [1] (healthy volunteers with normal renal function, 12 mg kg^−1 Q24 h) is 197 µg/mL. Further, in series [1] (setting [4]), the “efficacy exposure reference AUC0–24h” value was 465 to 761 µg·h/mL and the “efficacy exposure reference C max” value was 66 to 112 µg/mL. The CL in series [2] (base model without CRRT patients, not-on-dialysis) was 11.4 mL/h/kg. Further, the CL in series [2] (base model without CRRT patients, not-on-dialysis, at 70 kg) was 0.80 L/h. The CL in series [2] (base model, CAPD) was 2.98 mL/h/kg. Further, the CL in series [2] (base model, HD) is 3.43 mL/h/kg. Moreover, in series [3] (4 mg kg^−1/day, n = 4, range), the C max is 24.7 to 69.7 µg/mL and the C min is 2.7 to 11.9 µg/mL. In addition, in series [3] (5 mg kg^−1/day, n = 2, range), the C max is 34.7 to 35.7 µg/mL and the C min is 3 to 3.7 µg/mL. Further, in series [3] (6 mg kg^−1/day, n = 2, range), the C max is 20.5 to 61.7 µg/mL and the C min is 1.5 to 15.9 µg/mL.
